Results published in the NIST ThermoML archive (doi:10.1007/s10765-019-2537-x).

Settings: Liquid, transient hot wire

Cc1ccccc1 [toluene]
Settings	thermal conductivity [W/m/K]
317.39 K, 5130 kPa	0.1266
317.42 K, 1050 kPa	0.1251
317.42 K, 10550 kPa	0.1277
317.46 K, 15330 kPa	0.1292
317.52 K, 20330 kPa	0.133
336.3 K, 20300 kPa	0.1267
336.32 K, 10150 kPa	0.1229
336.34 K, 15140 kPa	0.1245
336.39 K, 5020 kPa	0.1205
336.42 K, 1030 kPa	0.1194
356.27 K, 15170 kPa	0.1205
356.27 K, 20040 kPa	0.1218
356.36 K, 10440 kPa	0.1184
356.41 K, 1160 kPa	0.1131
356.43 K, 5170 kPa	0.1166
376.88 K, 20030 kPa	0.1185
376.95 K, 5200 kPa	0.1108
376.95 K, 10160 kPa	0.1124
376.95 K, 15270 kPa	0.1147
377.07 K, 1080 kPa	0.1096
395.96 K, 15140 kPa	0.1121
396.23 K, 10180 kPa	0.1091
396.26 K, 20010 kPa	0.1141
396.28 K, 5150 kPa	0.1072
396.32 K, 1030 kPa	0.1059
416.29 K, 20250 kPa	0.1104
416.33 K, 15150 kPa	0.1066
416.68 K, 5290 kPa	0.1033
416.72 K, 10280 kPa	0.1054
416.75 K, 1040 kPa	0.1013
436.23 K, 20100 kPa	0.1051
436.34 K, 15130 kPa	0.1036
436.37 K, 1020 kPa	0.0972
436.48 K, 10230 kPa	0.1026
436.52 K, 5170 kPa	0.0992
456.02 K, 20030 kPa	0.1029
456.04 K, 5400 kPa	0.0956
456.22 K, 15290 kPa	0.1003
456.24 K, 10330 kPa	0.099
456.26 K, 1140 kPa	0.0928
476.35 K, 10170 kPa	0.0941
476.38 K, 20260 kPa	0.0994
476.61 K, 1110 kPa	0.0901
476.73 K, 5010 kPa	0.0914
476.75 K, 15330 kPa	0.0965
496.03 K, 20300 kPa	0.0962
496.15 K, 2850 kPa	0.0875
496.27 K, 15290 kPa	0.0945
496.31 K, 10420 kPa	0.0928
496.49 K, 5210 kPa	0.087
516.06 K, 20190 kPa	0.094
516.2 K, 15360 kPa	0.0916
516.21 K, 10220 kPa	0.0906
516.4 K, 5090 kPa	0.0862
536.3 K, 10150 kPa	0.0873
536.39 K, 15400 kPa	0.0897
536.56 K, 20330 kPa	0.0921
556.53 K, 15430 kPa	0.0908
556.59 K, 20100 kPa	0.0927
556.68 K, 10050 kPa	0.0869
576.72 K, 20150 kPa	0.0885
